We go through 22 molecules from ChEMBL document CHEMBL1152023, “Phenyl pyrrolidine analogues as potent nicotinic acetylcholine receptor (nAChR) ligands” (Bioorg Med Chem Lett, 1995).

Broadly, the Ki is the dissociation constant of the complex between target and ligand, obtained from inhibition or displacement.

The target in the assay is Neuronal acetylcholine receptor. As to the kind of experiment: Ability to displace [3H](-)-cytisine from nicotinic acetylcholine receptor (nAChR) in a whole rat brain preparation.
`CN1CCCC1c1ccc2c(c1)OCO2` (configuration not stated) gave a Ki of 46 nM.

`Cc1ccc(C2CCCN2C)cc1` (configuration not stated) returned a Ki of 1330 nM. For `CN1CCCC1c1ccc(C(F)(F)F)cc1` (configuration not stated) the value was 931 nM; for `CN1CCCC1c1ccc(F)c(F)c1` (configuration not stated), 420 nM.

In the case of `Cc1ccccc1C1CCCN1C` (configuration not stated), the affinity corresponds to a Ki of 9000 nM. The same measure for `Cc1cccc(C2CCCN2C)c1` (configuration not stated): 719 nM.

As for `COc1cc2c(cc1O)CCN1CC=C3C=C[C@H](OC)C[C@]321` [ERYSODINE], the Ki worked out at 5 nM. The same measure for `CN1CCCC1c1ccc(Cl)c(Cl)c1` (configuration not stated): 68 nM. For `CN1CCCC1c1ccc(Br)cc1` (configuration not stated) the value was 75 nM; for `CN1CCCC1c1ccc2c(c1)OCCO2` (configuration not stated), 1220 nM.

In turn, `COc1cccc(C2CCCN2C)c1` (configuration not stated) had a Ki of 597 nM. As for `COc1ccc(C2CCCN2C)cc1OC` (configuration not stated), the Ki worked out at 9700 nM.

`CN1CCCC1c1cccc(F)c1` (configuration not stated) gave a Ki of 399 nM. As for `Clc1ccc(C2=NCCC2)cc1`, the Ki is more than 10000 nM. In turn, `c1ccc(C2CCCN2)cc1` (configuration not stated) had a Ki of 8700 nM. Regarding `COc1ccccc1C1CCCN1C` (configuration not stated), the Ki is more than 10000 nM. The same measure for `COc1ccc(C2CCCN2C)cc1` (configuration not stated): 707 nM; for `CN1CCCC1c1ccc(F)cc1` (configuration not stated): 207 nM; for `Fc1cccc(C2=NCCC2)c1`: more than 10000 nM.

The molecule `CN1CCCC1c1cccc(Cl)c1` (configuration not stated) returned a Ki of 227 nM. For `CN1CCCC1c1ccc(Cl)cc1` (configuration not stated) the value was 164 nM.

In the case of `COc1cc(C2CCCN2C)ccc1O` (configuration not stated), the Ki was 8250 nM.
